Where two headings read alike, the source gives them in different places.
Columns and labels:
[1] = system: human HCT-15 colon carcinoma; assay type: in vivo, female BALB/c nude mice; settings: 4 mg/kg, i.v. once on day 14
Procedure: Female or male BALB/c nu/nu (nude) mice are kept under sterile conditions (10 to 12 mice per Type III cage) with free access to food and water. Mice weigh between 20 and 25 grams at the time of tumor implantation. Tumors are established by subcutaneous injection of cells (minimum 2×10^6 cells in 100 μl PBS or medium) in carrier mice (4-8 mice per cell line). The resulting tumors are serially passaged for a minimum of three consecutive transplantations prior to start of treatment. Tumor fragments (approx. 25 mg) are implanted s.c. into the left flank of animals with a 13-gauge trocar needle while the mice are exposed to Forene (Abbott, Switzerland) anesthesia.
Tumor growth and body weights are monitored once or twice weekly. All treatments are administered intravenously (i.v.) and are initiated when a mean tumor volume of approximately 100 to 250 mm^3 is attained, depending upon the tumor type. Tumor volumes are determined using the formula […] (see Cancer Chemother. Pharmacol. 24:148-154, [1989]). Treatments with epothilone B vary the dose and the frequency of administration. Comparator agents are administered according to previously determined optimal treatment regimens. In addition to presenting changes in tumor volumes over the course of treatment, antitumor activity is expressed as T/C% (mean increase of tumor volumes of treated animals divided by the mean increase of tumor volumes of control animals multiplied by 100). Tumor regression (%) represents the smallest mean tumor volume compared to the mean tumor volume at the start of treatment, according to the formula Regression (%)=(1−Vend/Vstart)×100 (Vend=final mean tumor volume, Vstart=mean tumor volume at the start of treatment. Any animals in which the tumor has reached a size exceeding approximately 1.5 to 2.5 cm^3 are sacrificed. Details can be found below.
Tumor fragments of approximately 25 mg are implanted into the left flank of each female nude mouse (n=8 per group). Treatments are started on day 14 after tumor transplantation. Epothilone B is administered once at 4 mg/kg, i.v. on day 14.5-Fluorouracil is administered at 75 mg/kg, i.v., on days 14 and 21. TAXOL® is administered i.v. at 20 mg/kg/day, every second day for 5 treatments (days 14, 16, 18, 20 and 22). Antitumor activity is expressed as T/C% (mean increase of tumor volumes of treated animals divided by the mean increase of tumor volumes of control animals multiplied by 100). Tumor regression (%) represents the final mean tumor volume compares to the mean tumor volume at the start of treatment. Δ Tumor volumes represent the tumor volume on the last treatment day minus the tumor volume on the first treatment day. Statistical analyses on Δ tumor volumes uses Dunnett's test to compare treatment groups to controls. Statistical analyses on body weight changes uses paired t-tests comparing body weights before treatment to those at the end of treatment; mice weigh ˜20-25 g at the start of treatment. Not significant is indicated by the abbreviation ,ns”. Data presented are means±SEM from animals surviving to the end of the experiment.

[2] = system: human PC-3M prostate carcinoma cells; assay: Antitumor effect against orthotopically injected PC-3M cells; assay type: in vivo, male BALB/c nude mice
Procedure: Human prostate carcinoma PC-3M cells (1×10^6 cells per 20 μl phosphate buffered saline) are injected into the left […] of the prostate of each animal (n=6-9/group) according the method previously described (see Stephenson et al., J. Natl. Cancer Inst. 84, 951-7 (1992)). Treatment is started on day 14 after cell injection. At this time point a mean tumor weight of ˜20 mg is established. Epothilone B is administered either once or once weekly. Mice are sacrificed 42 days post tumor inoculation, and the prostates are carefully removed, dissected free of adhering tissue and weighed. […] Mesenteric lymph nodes are examined for the presence of metastases, dissected free of adhering tissue and weighed.
Tumor weight and body weights are monitored once or twice weekly. All treatments are administered intravenously (i.v.) and are initiated 14 days post cell injection. Treatment with epothilone B varies the dose and frequency of administration. Antitumor activity is expressed as T/C% (mean tumor weight of treated animals divided by the mean tumor weight of control animals multiplied by 100).
1×10^6 PC-3M cells in 20 μL of PBS are injected into the […] of the prostate of each male nude mouse (n=9 per group). Treatments are started on day 14 after tumor cell injection. epothilone B is administered i.v., once at 6 or 8 mg/kg, or once per week at 4 or 5 mg/kg. Antitumor activity is expressed as T/C% (mean tumor weight of treated animals divided by the mean of tumor weight of control animals multiplied by 100). Differences in body weights consider only animals surviving to the end of the experiment (day 42). Statistical analyses on A body weight uses paired t-tests comparing body weights before treatment to the end of treatment; mice weigh˜20-25 g at the start of treatment. Not significant is indicated by the abbreviation ,ns”.

[3] = system: A549 non-small cell lung tumors; assay type: in vivo, outbred athymic (nu/nu) mice; settings: for % T/C / Dead/Total: extended observation, day 48
Procedure: Materials and methods pertaining to the human tumor xenograft model are as previously described.
Measurements are taken for an additional 2 weeks after completion of the regular 3 weeks experiments, to evaluate reversibility of drug-induced body weight loss, and sustainability of antitumor effects.
Treatments are started on day 13 post implantation (10 million cells/animal). Epothilone B is administered i.v. once weekly for 3 weeks (days 13, 20, and 27) at doses of 1, 2, 3, and 3.5 mg/kg. […] Final data are recorded on day 34. A single asterisk (*) indicates p<0.05 using a one-tailed Student's t-Test, and a double asterisk (**) indicates p<0.05 using a Dunnett's or Dunn's test.
Measurements for the experiment described in Table 1 are extended by additional two weeks. Final data are recorded on day 48. A single asterisk (*) indicates p<0.05 using a one-tailed Student's t-Test, and a double asterisk (**) indicates p<0.05 using a Dunneff's or Dunn's test.

[4] = 1 mg/kg i.v. once weekly for 3 weeks
[5] = 2 mg/kg i.v. once weekly for 3 weeks
[6] = 3 mg/kg i.v. once weekly for 3 weeks
[7] = 3.5 mg/kg i.v. once weekly for 3 weeks

`C/C(=C\c1csc(C)n1)[C@@H]1C[C@@H]2O[C@]2(C)CCC[C@H](C)[C@H](O)[C@@H](C)C(=O)C(C)(C)[C@@H](O)CC(=O)O1` [epothilone B] was tested, and the “% Body Weight Change” value [1] was 2 ± 2%, the “Mortalities due to treatment” value [1] was “No mortalities” and the T/C [1] was “Regres-”. For the same molecule, the “D Body Weight” value ([1]; mean ± SEM) was 0.4 ± 0.3 g, the “Δ Body Weight” value ([2]; 4 mg/kg, i.v. once per week) was -1.2 g and the “Δ Body Weight” value ([2]; 5 mg/kg, i.v. once per week) was -6.8 g. The “Δ Body Weight” value ([2]; 6 mg/kg, i.v. once) was -1.4 g, the “Δ Body Weight” value ([2]; 8 mg/kg, i.v. once) was -5.2 g and the “% T/C” value [3, 4] was 72%. For the same molecule, the Dead/Total [3, 4] was 0/8, the “% T/C” value [3, 5] was 49% and the Dead/Total [3, 5] was 0/8. For the same molecule, the “% T/C” value [3, 6] was 16%, the Dead/Total [3, 6] was 0/8 and the “% T/C” value [3, 7] was 12%. The Dead/Total [3, 7] was 0/8 and the body weight loss ([3]; 3.5 and 3 mg/kg i.v. once weekly, reversible) was “approximately 15%”.

From patent US20040024033A1 (priority 1998, published 2004)
